Assay results taken from patent US20120107323A1, “KINASE PROTEIN BINDING INHIBITORS” (University of Florida, priority 2009, published 2012).

How the values were obtained:
[1] = test system: TE7 esophageal cancer cells; experiment: Cell viability (MTT), TE7; format: cell-based; conditions: TE7, 72 hours; read-out: IC50 of INT2-31, cell viability
Method: (§1) Cell viability (MTT) and CFSE Proliferation assay: Cells were plated in 96-well plates and let adhere overnight. After cell treatment, cell viability was measured by 3-(4,5-dimethylthiazol-2-yl)-2,5-diphenyl tetrazolium bromide (MTT) assay (CellTiter 96® Aqueous, Promega, Madison, Wis.).
Cell viability and detachment assays: After cells were treated with siRNA transfection, cell viability was measured by 3-(4,5-dimethylthiazol2-yl)-2,5-diphenyl tetrazolium bromide (MTT) assay (CellTiter 96® AQueous, Promega, Madison, Wis.). Briefly, 20 μl of the tetrazolium compound was added to each well. The cells were then incubated at 37° C. for 1 h. The plate was read at 490 nm with a plate reader to determine the viability. In detachment assays, detached and attached cells were harvested separately and counted in a hemocytometer. The percentage of detachment was calculated by dividing the number of detached cells by the total number of cells. Apoptosis assays: After treatment, attached and detached cells were collected, counted and prepared for terminal uridine deoxynucleotidyl transferase (TUNEL) assay by utilizing an APO-BRDU kit (BD Pharmingen, San Diego, Calif.) according to the manufacturer's instructions. Stained cells were analyzed with a fluorescence-activated cell sorting-Calibur flow cytometer (BD Biosciences). […] Apoptotic cells were also analyzed by Hoechst staining. […]

[2] = test system: Panc-1 pancreatic cancer cells; experiment: Cell viability (MTT), Panc-1; format: cell-based
Method: as §1
Cell viability and detachment assays: After cells were treated with siRNA transfection, cell viability was measured by 3-(4,5-dimethylthiazol2-yl)-2,5-diphenyl tetrazolium bromide (MTT) assay (CellTiter 96® AQueous, Promega, Madison, Wis.). Briefly, 20 μl of the tetrazolium compound was added to each well. The cells were then incubated at 37° C. for 1 h. The plate was read at 490 nm with a plate reader to determine the viability. In detachment assays, detached and attached cells were harvested separately and counted in a hemocytometer. The percentage of detachment was calculated by dividing the number of detached cells by the total number of cells. Apoptosis assays: After treatment, attached and detached cells were collected, counted and prepared for terminal uridine deoxynucleotidyl transferase (TUNEL) assay by utilizing an APO-BRDU kit (BD Pharmingen, San Diego, Calif.) according to the manufacturer's instructions. Stained cells were analyzed with a fluorescence-activated cell sorting-Calibur flow cytometer (BD Biosciences). Calculation of the percentage of apoptotic cells in the sample was completed with CellQuest software (BD Biosciences). Apoptotic cells were also analyzed by Hoechst staining. Hoechst 33342 ([…]) was added to the fixed cells and the specimens were mounted on glass coverslips. The slides were viewed under the Zeiss microscope for apoptotic nuclei. The percent of apoptotic cells was calculated as the ratio of apoptotic cells to total number of cells.
In addition, the effect of INT2-31 on cell viability of esophageal, pancreatic and breast cancer cell lines was analyzed and the IC50 value for each cell line was determined, as shown in Table 1. […] Similar to melanoma results, INT2-31 inhibits viability more in cancer cells compared to normal cells. Sensitivity of the cells to INT2-31 varied and directly correlated to the FAK and IGF-1R expression level of the cells.

[3] = test system: esophageal patient #5 cells; experiment: Cell viability (MTT), esophageal patient #5 cells; format: cell-based; conditions: Homo sapiens, average IC50
Method: as §1
To assimilate the effects of targeting the interaction of these proteins in direct patient specimens, a system was developed in which direct esophageal cancer specimens were grown in mice and tissue culture plates to allow fresh human tissue for experimentation. More than 20 tumors and corresponding normal tissue specimens have been obtained from cancer patients. […] To evaluate the in vitro effects of INT2-31 on patient specimens, we utilized MTT assay of cells grown in a tissue culture plate maximum up to eight passages were utilized.

[4] = test system: Panc-1 orthotopic xenografts; experiment: Orthotopic pancreatic xenograft, Panc-1; format: in vivo, mice; set-up: dose or concentration left out as unconfirmed; conditions: Panc-1, 21 days
Text: For the orthotopic model of pancreatic cancer, the University of Florida IACUC approved the following protocol (IACUC Study #2000801506). The pancreatic cancer cell lines, Mia paca-2 and Panc-1 cells were stably transfected using luciferase-RFP (red fluorescent protein) reporter gene for in vivo imaging of the xenografts. Following expansion and sorting of RFP positive cells, cells were expanded in culture and 5×10^6 tumor cells were implanted into the pancreas of 20 mice. For intra-pancreatic implantation of cells, mice were anesthetized with Isoflurane using the ACS provided and maintained rodent anesthesia machine. Under sterille surgical conditions, via 1.0 cm incision of the skin, abdominal wall and peritonium, the spleen was retracted and cells were injected in […] into the tail of the pancreas using a 29-gauge needle. The abdominal wall and peritoneum was sutured using 5.0 absorbable surgical sutures and the skin was closed with medical glue (dermabond). Postoperative analgesia was 0.05 mg/kg of buprenorphine subcutaneously per 8-12 hours postoperatively.
Mice were hand restrained prior to intraperitoneal injections. Mice were euthanized 6 weeks after tumor innoculation and tumor and tissue collected. As described below, mice were imaged weekly with the IVIS lumina imager and tumor size was estimated by the bioluminescent signal. […]

## CSc1ncnc2c1ccn2C1O[C@H](COP(=O)(O)O)[C@@H](O)[C@H]1O (stereo partly drawn) [INT2-31, 4-(Methylthio)-7-(5-O-phosphono-D-ribofuranosyl)-{7H-Pyrrolo[2,3-d]pyrimidine}]
[1]
  IC50: 3.2 µM
[2]; Homo sapiens, Panc-1, 72 hours, read-out: IC50 of INT2-31, cell viability
  IC50: 6.7 µM
[2]; Panc-1, 72 hours
  cell viability (in words): inhibits the cell viability
[2]; pancreatic cancer cells, 1 μM INT2-31
  effect of combination with 5-FU on cell viability: synergistic effects
[2]; pancreatic cancer cells, data not shown
  effect of combination with gemcitabine on cell viability: only additive
[3]
  IC50: 2.18 µM
[4]
  growth of the orthotopic pancreatic xenografts: sufficiently reduced the growth
